In patent US12240840B2, “Amide-substituted heterocyclic compounds for the treatment of conditions related to the modulation of IL-12, IL-23 and/or IFN-alpha” (BRISTOL-MYERS SQUIBB COMPANY, priority 2018, dated 2025):

Tested on: IFNα-induced pSTAT5 (pY694) in CD3 positive cells of human whole blood
Assay: IFNα-Induced STAT Phosphorylation in Human Whole Blood
Assay type: cell-based
Details: Homo sapiens, 1 h compound incubation, 1000 U/mL recombinant human IFNα A/D for 15 min, pSTAT5 in CD3 positive population, read-out: Human WB IFNα-Induced Stat Phosph. (IC50)
Outline: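 Read-out is median fluorescence intensity of pSTAT5 (pY694) in the CD3-positive gate, by flow cytometry after fix/lyse and permeabilization. Before that, whole human blood anticoagulated with EDTA or ACD-A received compound for an hour and 1000 U/mL IFNα A/D for 15 min.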

| SMILES | IC50 [nM] |
| --- | --- |
| [2H]C([2H])([2H])NC(=O)c1nnc(NC(=O)C2CC2)cc1Nc1cccc(-c2ncc(CNC(=O)CC)s2)c1OC [Example 262] | 2690 |
| [2H]C([2H])([2H])NC(=O)c1nnc(NC(=O)C2CC2)cc1Nc1cccc(-c2ncc(CNC(=O)COC)s2)c1OC [Example 263] | 830 |
| [2H]C([2H])([2H])NC(=O)c1nnc(NC(=O)C2CC2)cc1Nc1cccc(-c2ncc(CNC(=O)CC#N)s2)c1OC [Example 264] | 1550 |
| [2H]C([2H])([2H])NC(=O)c1nnc(NC(=O)C2CC2)cc1Nc1cccc(-c2ncc(CNS(C)(=O)=O)s2)c1OC [Example 265] | 530 |
| [2H]C([2H])([2H])NC(=O)c1nnc(NC(=O)C2CC2)cc1Nc1cccc(-c2ncc(CNC(=O)OC)s2)c1OC [Example 266] | 2530 |
| [2H]C([2H])([2H])NC(=O)c1nnc(NC(=O)C2CC2)cc1Nc1cccc(-c2ncc(C(C)(C)O)s2)c1OC [Example 267] | 150 |
| [2H]C([2H])([2H])NC(=O)c1nnc(NC(=O)C2CC2)cc1Nc1cccc(-c2ncc(C(=O)N3CCOCC3)s2)c1OC [Example 268] | 100 |
| [2H]C([2H])([2H])NC(=O)c1nnc(NC(=O)C2CC2)cc1Nc1cccc(-c2ncc(C(=O)N3CCN(CCO)CC3)s2)c1OC [Example 269] | 40 |
| [2H]C([2H])([2H])NC(=O)c1cnc(NC(=O)C2CC2)cc1Nc1cccc(-c2ncc(C(C)(C)O)s2)c1OC [Example 270] | 100 |
| [2H]C([2H])([2H])NC(=O)c1nnc(NC(=O)C2CC2)cc1Nc1cccc(-c2ncc(C(=O)NCCOC)s2)c1OC [Example 271] | 90 |
| [2H]C([2H])([2H])NC(=O)c1nnc(NC(=O)C2CC2)cc1Nc1cccc(-c2ncc(C(=O)NCC)s2)c1OC [Example 272] | 160 |
| [2H]C([2H])([2H])NC(=O)c1nnc(NC(=O)C2CC2)cc1Nc1cccc(-c2ncc(C(=O)N3CCS(=O)(=O)CC3)s2)c1OC [Example 273] | 70 |
| [2H]C([2H])([2H])NC(=O)c1nnc(NC(=O)C2CC2)cc1Nc1cccc(-c2ncc(C(=O)N3CC4CN(C)CC4C3)s2)c1OC (centres unmarked) [Example 274] | 50 |
| [2H]C([2H])([2H])NC(=O)c1nnc(NC(=O)C2CC2)cc1Nc1cccc(-c2ncc(C(=O)N3C[C@@H](C)O[C@@H](C)C3)s2)c1OC [Example 275] | 150 |
| [2H]C([2H])([2H])NC(=O)c1nnc(NC(=O)C2CC2)cc1Nc1cccc(-c2nc(C(=O)N(C)C)cs2)c1OC [Example 276] | 690 |
| [2H]C([2H])([2H])NC(=O)c1nnc(NC(=O)C2CC2)cc1Nc1cc(F)cc(-c2ncc(C(=O)N(C)C)s2)c1OC [Example 277] | 240 |
| [2H]C([2H])([2H])NC(=O)c1nnc(NC(=O)C2CC2)cc1Nc1cccc(-c2ncc(NC(C)=O)s2)c1OC [Example 279] | 470 |
| [2H]C([2H])([2H])NC(=O)c1nnc(NC(=O)C2CC2)cc1Nc1cccc(-c2ncc(NC(=O)OC(C)(C)C)s2)c1OC [Example 281] | > 10000 |
| [2H]C([2H])([2H])NC(=O)c1nnc(NC(=O)C2CC2)cc1Nc1cccc(-c2ncc(N)s2)c1OC [Example 282] | 180 |
| [2H]C([2H])([2H])NC(=O)c1nnc(NC(=O)C2CC2)cc1Nc1cccc(-c2ncc(NC(=O)COC)s2)c1OC [Example 283] | 360 |

| SMILES | IC50 [nM] |
| --- | --- |
| [2H]C([2H])([2H])NC(=O)c1nnc(NC(=O)C2CC2)cc1Nc1cccc(-c2ncc(NC(=O)CC#N)s2)c1OC [Example 284] | > 10000 |
| [2H]C([2H])([2H])NC(=O)c1nnc(NC(=O)C2CC2)cc1Nc1cccc(-c2ncc(C(=O)NCC34CCN(CC3)CC4)s2)c1OC [Example 287] | 1260 |
| [2H]C([2H])([2H])NC(=O)c1nnc(NC(=O)C2CC2)cc1Nc1cccc(-c2ncc(C(=O)N3C4CCC3CN(C)C4)s2)c1OC [Example 288] | 90 |
| [2H]C([2H])([2H])NC(=O)c1nnc(NC(=O)C2CC2)cc1Nc1cccc(-c2ncc(C(=O)NCc3ccccc3)s2)c1OC [Example 289] | 150 |
| [2H]C([2H])([2H])NC(=O)c1nnc(NC(=O)C2CC2)cc1Nc1cccc(-c2ncc(C(=O)NCCC(=O)OC)s2)c1OC [Example 290] | 100 |
| [2H]C([2H])([2H])NC(=O)c1nnc(NC(=O)C2CC2)cc1Nc1cccc(-c2ncc(C(=O)N(C)CC)s2)c1OC [Example 291] | 110 |
| [2H]C([2H])([2H])NC(=O)c1nnc(NC(=O)C2CC2)cc1Nc1cccc(-c2ncc(C(=O)N(C)C(C)C)s2)c1OC [Example 292] | 160 |
| [2H]C([2H])([2H])NC(=O)c1nnc(NC(=O)C2CC2)cc1Nc1cccc(-c2ncc(C(=O)NCCCN3CCCC3=O)s2)c1OC [Example 293] | 30 |
| [2H]C([2H])([2H])NC(=O)c1nnc(NC(=O)C2CC2)cc1Nc1cccc(-c2ncc(C(=O)N3CCCN(C)CC3)s2)c1OC [Example 294] | 70 |
| [2H]C([2H])([2H])NC(=O)c1nnc(NC(=O)C2CC2)cc1Nc1cccc(-c2ncc(C(=O)N3CCN(C(C)C)CC3)s2)c1OC [Example 295] | 60 |
| [2H]C([2H])([2H])NC(=O)c1nnc(NC(=O)C2CC2)cc1Nc1cccc(-c2ncc(C(=O)Nc3ccc(OC)cc3)s2)c1OC [Example 296] | > 10000 |
| [2H]C([2H])([2H])NC(=O)c1nnc(NC(=O)C2CC2)cc1Nc1cccc(-c2ncc(C(=O)N3CCC(CCO)CC3)s2)c1OC [Example 297] | 30 |
| [2H]C([2H])([2H])NC(=O)c1nnc(NC(=O)C2CC2)cc1Nc1cccc(-c2ncc(C(=O)N3CCc4ccccc4C3)s2)c1OC [Example 298] | > 10000 |
| [2H]C([2H])([2H])NC(=O)c1nnc(NC(=O)C2CC2)cc1Nc1cccc(-c2ncc(C(=O)NCCC3CCCN3C)s2)c1OC (centres unmarked) [Example 299] | 14 |
| [2H]C([2H])([2H])NC(=O)c1nnc(NC(=O)C2CC2)cc1Nc1cccc(-c2ncc(C(=O)NCC#N)s2)c1OC [Example 300] | 330 |
| [2H]C([2H])([2H])NC(=O)c1nnc(NC(=O)C2CC2)cc1Nc1cccc(-c2ncc(C(=O)NCCN3CCCC3)s2)c1OC [Example 301] | 30 |
| [2H]C([2H])([2H])NC(=O)c1nnc(NC(=O)C2CC2)cc1Nc1cccc(-c2ncc(C(=O)N3CCC[C@H]3CO)s2)c1OC [Example 302] | 110 |
| [2H]C([2H])([2H])NC(=O)c1nnc(NC(=O)C2CC2)cc1Nc1cccc(-c2ncc(C(=O)NC(C)C)s2)c1OC [Example 303] | 100 |
| [2H]C([2H])([2H])NC(=O)c1nnc(NC(=O)C2CC2)cc1Nc1cccc(-c2ncc(C(=O)NCCNC(C)=O)s2)c1OC [Example 304] | 130 |
| [2H]C([2H])([2H])NC(=O)c1nnc(NC(=O)C2CC2)cc1Nc1cccc(-c2ncc(C(=O)NCCC(C)C)s2)c1OC [Example 305] | 220 |

| SMILES | IC50 [nM] |
| --- | --- |
| [2H]C([2H])([2H])NC(=O)c1nnc(NC(=O)C2CC2)cc1Nc1cccc(-c2ncc(C(=O)NC3CCC(O)CC3)s2)c1OC (centres unmarked) [Example 306] | 440 |
| [2H]C([2H])([2H])NC(=O)c1nnc(NC(=O)C2CC2)cc1Nc1cccc(-c2ncc(C(=O)NC3CCC(N(C)C)CC3)s2)c1OC (centres unmarked) [Example 307] | 30 |
| [2H]C([2H])([2H])NC(=O)c1nnc(NC(=O)C2CC2)cc1Nc1cccc(-c2ncc(C(=O)NC(C)(C)C)s2)c1OC [Example 309] | > 10000 |
| [2H]C([2H])([2H])NC(=O)c1nnc(NC(=O)C2CC2)cc1Nc1cccc(-c2ncc(C(=O)NCC(C)C)s2)c1OC [Example 310] | > 10000 |
| [2H]C([2H])([2H])NC(=O)c1nnc(NC(=O)C2CC2)cc1Nc1cccc(-c2ncc(C(=O)NCCC(N)=O)s2)c1OC [Example 311] | 200 |
| [2H]C([2H])([2H])NC(=O)c1nnc(NC(=O)C2CC2)cc1Nc1cccc(-c2ncc(C(=O)N3CCNC(=O)C3)s2)c1OC [Example 312] | 70 |
| [2H]C([2H])([2H])NC(=O)c1nnc(NC(=O)C2CC2)cc1Nc1cccc(-c2ncc(C(=O)N3CCC3)s2)c1OC [Example 313] | 70 |
| [2H]C([2H])([2H])NC(=O)c1nnc(NC(=O)C2CC2)cc1Nc1cccc(-c2ncc(C(=O)NCCCC)s2)c1OC [Example 314] | 260 |
| [2H]C([2H])([2H])NC(=O)c1nnc(NC(=O)C2CC2)cc1Nc1cccc(-c2ncc(C(=O)N3CCC(N(C)C)CC3)s2)c1OC [Example 315] | 22 |
| [2H]C([2H])([2H])NC(=O)c1nnc(NC(=O)C2CC2)cc1Nc1cccc(-c2ncc(C(=O)NCCCCC)s2)c1OC [Example 316] | 330 |
| [2H]C([2H])([2H])NC(=O)c1nnc(NC(=O)C2CC2)cc1Nc1cccc(-c2ncc(C(=O)NCCCN(C)C)s2)c1OC [Example 317] | 30 |
| [2H]C([2H])([2H])NC(=O)c1nnc(NC(=O)C2CC2)cc1Nc1cccc(-c2ncc(C(=O)N3CCC(CCN4CCCC4)CC3)s2)c1OC [Example 318] | 80 |
| [2H]C([2H])([2H])NC(=O)c1nnc(NC(=O)C2CC2)cc1Nc1cccc(-c2ncc(C(=O)NC3CCC(N(CC)CC)CC3)s2)c1OC (centres unmarked) [Example 319] | 30 |
| [2H]C([2H])([2H])NC(=O)c1nnc(NC(=O)C2CC2)cc1Nc1cccc(-c2ncc(C(=O)N3CC(C)(C)C3)s2)c1OC [Example 320] | 50 |
| [2H]C([2H])([2H])NC(=O)c1nnc(NC(=O)C2CC2)cc1Nc1cccc(-c2ncc(C(=O)NCCN3CCOCC3)s2)c1OC [Example 321] | 30 |
| [2H]C([2H])([2H])NC(=O)c1nnc(NC(=O)C2CC2)cc1Nc1cccc(-c2ncc(C(=O)NCCN3CCN(C)CC3)s2)c1OC [Example 322] | 80 |
| [2H]C([2H])([2H])NC(=O)c1nnc(NC(=O)C2CC2)cc1Nc1cccc(-c2ncc(C(=O)NCCN3CCCC(C)C3)s2)c1OC (centres unmarked) [Example 324] | 60 |
| [2H]C([2H])([2H])NC(=O)c1nnc(NC(=O)C2CC2)cc1Nc1cccc(-c2ncc(C(=O)N3CCC(CCOC)CC3)s2)c1OC [Example 325] | 110 |
| [2H]C([2H])([2H])NC(=O)c1nnc(NC(=O)C2CC2)cc1Nc1cccc(-c2ncc(C(=O)NCC3CCN(C)C3)s2)c1OC (centres unmarked) [Example 326] | 30 |
